Reference: US8080657B2, “Compounds of reverse turn mimetics and the use thereof” (Choongwae Pharma Corporation, priority 2008, dated 2011)

system: Wnt signaling; assay: TopFlash reporter gene bioassay in SW480 cells; type: cell-based; settings: Homo sapiens, SW480, TopFlash reporter gene assay, inhibition of Wnt signaling; read-out: RGA, IC50 (μM) TopF

Row | IC50 | Structure (SMILES)
1 | 6.66 ± 0.88 µM | C=CCN1CC(=O)N2[C@@H](Cc3ccc(O)cc3)C(=O)N(Cc3ccc(OCCC)cc3)C[C@@H]2N1C(=O)NCc1ccccc1 [compound 247]
2 | 3.96 ± 0.93 µM | C=CCN1CC(=O)N2[C@@H](Cc3ccc(O)cc3)C(=O)N(Cc3cccc(-c4cccc(OC)c4)n3)C[C@@H]2N1C(=O)NCc1ccccc1 [compound 218]
3 | 7.1 ± 0.99 µM | C=CCN1CC(=O)N2[C@@H](Cc3ccc(O)cc3)C(=O)N(Cc3c[nH]c4ccc(OC)cc34)C[C@@H]2N1C(=O)NCc1ccccc1 [compound 253]
4 | 1.17 ± 0.27 µM | C=CCN1CC(=O)N2[C@@H](Cc3ccc(O)cc3)C(=O)N(Cc3cccc4c3ncn4C(=O)CNC(=O)OC(C)(C)C)C[C@@H]2N1C(=O)NCc1ccccc1 [compound 99]
5 | 36.4 ± 2 µM | C=CCN1CC(=O)N2[C@@H](Cc3ccc(OCC(O)CO)cc3)C(=O)N(Cc3cccc4scnc34)C[C@@H]2N1C(=O)NCc1ccccc1 (stereo partly shown) [compound 222]
6 | 17.5 ± 5.57 µM | C=CCN1CC(=O)N2[C@@H](Cc3ccc(O)cc3)C(=O)N(Cc3cn(-c4cccc(F)c4)c4ccccc34)C[C@@H]2N1C(=O)NCc1ccccc1 [compound 166]
7 | 1.43 ± 0.26 µM | C=CCN1CC(=O)N2C(CN(Cc3cccc(C#CC(C)(C)C)n3)C(=O)[C@@H]2Cc2ccc(O)cc2)N1C(=O)NCc1ccccc1 (stereo partly shown) [compound 116]
8 | 1.91 ± 0.24 µM | C=CCN1CC(=O)N2[C@@H](Cc3ccc(O)cc3)C(=O)N(Cc3cccc(-c4ccc(OC)cc4)c3)C[C@@H]2N1C(=O)NCc1ccccc1 [compound 140]
9 | 19.4 ± 3.4 µM | C=CCN1CC(=O)N2[C@@H](Cc3ccc(O)cc3)C(=O)N(Cc3csc4c(NC(=O)OC)cccc34)C[C@@H]2N1C(=O)NCc1ccccc1 [compound 167]
10 | 0.6 ± 0.13 µM | C=CCN1CC(=O)N2[C@@H](Cc3ccc(O)cc3)C(=O)N(Cc3cccc4c3ncn4C(=O)CN)C[C@@H]2N1C(=O)NCc1ccccc1 [compound 37]
11 | 0.8 ± 0.07 µM | C=CCN1CC(=O)N2C(Cc3ccc(O)cc3)C(=O)N(Cc3cccc(-c4ccccn4)c3)C[C@@H]2N1C(=O)NCc1ccccc1 (stereo partly shown) [compound 61]
12 | 3.72 ± 0.47 µM | C=CCN1CC(=O)N2[C@@H](Cc3ccc(O)cc3)C(=O)N(Cc3ccc(OCCCC)cc3)C[C@@H]2N1C(=O)NCc1ccccc1 [compound 214]
13 | 0.92 ± 0.14 µM | C=CCN1CC(=O)N2[C@@H](Cc3ccc(O)cc3)C(=O)N(Cc3csc4cc([N+](=O)[O-])ccc34)C[C@@H]2N1C(=O)NCc1ccccc1 [compound 75]
14 | 0.85 ± 0.089 µM | C=CCN1CC(=O)N2[C@@H](Cc3ccc(O)cc3)C(=O)N(Cc3cn(C)c4ccccc34)C[C@@H]2N1C(=O)NCc1ccccc1 [compound 67]
15 | 1.58 ± 0.27 µM | C=CCN1CC(=O)N2[C@@H](Cc3ccc(O)cc3)C(=O)N(Cc3cccc(-c4cccc(C#N)c4)c3)C[C@@H]2N1C(=O)NCc1ccccc1 [compound 126]
16 | 0.63 ± 0.06 µM | C=CCN1CC(=O)N2[C@@H](Cc3ccc(O)cc3)C(=O)N(Cc3cccc(-c4ccc(N)nc4)c3)C[C@@H]2N1C(=O)NCc1ccccc1 [compound 40]
17 | 6.8 ± 1.5 µM | C=CCN1CC(=O)N2[C@@H](Cc3ccc(O)cc3)C(=O)N(Cc3ccc(OCC)cc3)C[C@@H]2N1C(=O)NCc1ccccc1 [compound 249]
18 | 2.47 ± 0.37 µM | C=CCN1CC(=O)N2[C@@H](Cc3ccc(O)cc3)C(=O)N(Cc3cccc(NS(C)(=O)=O)c3)C[C@@H]2N1C(=O)NCc1ccccc1 [compound 181]
19 | 3.62 ± 0.65 µM | C=CCN1CC(=O)N2[C@@H](Cc3ccc(O)cc3)C(=O)N(Cc3cccc4ccn(Cc5cccc(N)c5)c34)C[C@@H]2N1C(=O)NCc1ccccc1 [compound 213]
20 | 0.63 ± 0.09 µM | C=CCN1CC(=O)N2[C@@H](Cc3ccc(O)cc3)C(=O)N(Cc3ccc(F)c4scnc34)C[C@@H]2N1C(=O)NCc1ccc(Cl)c(Cl)c1 [compound 41]
21 | 3.3 ± 0.58 µM | C=CCN1CC(=O)N2[C@@H](Cc3ccc(O)cc3)C(=O)N(Cc3cccc(-c4ncc[nH]4)c3)C[C@@H]2N1C(=O)NCc1ccccc1 [compound 209]
22 | 0.081 ± 0.0086 µM | C=CCN1CC(=O)N2[C@@H](Cc3ccc(O)cc3)C(=O)N(Cc3cccc4c(C(=O)C5CC5)cn(S(=O)(=O)c5ccc(C)cc5)c34)C[C@@H]2N1C(=O)NCc1ccccc1 [compound 1]
23 | 1.91 ± 0.28 µM | C=CCN1CC(=O)N2[C@@H](Cc3ccc(O)cc3)C(=O)N(Cc3cccc(-c4ccc(F)cc4)n3)C[C@@H]2N1C(=O)NCc1ccccc1 [compound 141]
24 | 1.1 ± 0.12 µM | C=CCN1CC(=O)N2[C@@H](Cc3ccc(O)cc3)C(=O)N(Cc3cccc(C4CC4)n3)C[C@@H]2N1C(=O)NCc1ccccc1 [compound 95]

Row | IC50 | Structure (SMILES)
25 | 1.44 ± 0.22 µM | C=CCN1CC(=O)N2[C@@H](Cc3ccc(O)cc3)C(=O)N(Cc3ccc(OC)c(Cl)c3)C[C@@H]2N1C(=O)NCc1ccccc1 [compound 117]
26 | 40.7 ± 6.4 µM | C=CCN1CC(=O)N2[C@@H](Cc3ccc(O)c(Br)c3)C(=O)N(Cc3cccc4scnc34)C[C@@H]2N1C(=O)NCc1ccccc1 [compound 235]
27 | 0.82 ± 0.25 µM | C=CCN1CC(=O)N2[C@@H](Cc3ccc(O)cc3)C(=O)N(Cc3cccc4c(C)c(-c5ccccc5F)n(S(=O)(=O)c5ccccc5)c34)C[C@@H]2N1C(=O)NCc1ccccc1 [compound 63]
28 | 3.87 ± 0.45 µM | C=CCN1CC(=O)N2[C@@H](Cc3ccc(O)cc3)C(=O)N(Cc3cccc(-c4cccnc4)n3)C[C@@H]2N1C(=O)NCc1ccccc1 [compound 217]
29 | 2.42 ± 0.47 µM | C=CCN1CC(=O)N2[C@@H](Cc3ccc(O)cc3)C(=O)N(Cc3cccnc3-c3ccc(OC)cc3)C[C@@H]2N1C(=O)NCc1ccccc1 [compound 180]
30 | 2.67 ± 0.59 µM | C=CCN1CC(=O)N2[C@@H](Cc3ccc(O)cc3)C(=O)N(Cc3ccccc3S(C)(=O)=O)C[C@@H]2N1C(=O)NCc1ccccc1 [compound 188]
31 | 9.3 ± 0.53 µM | C=CCN1CC(=O)N2[C@@H](Cc3ccc(O)cc3)C(=O)N(Cc3cccc(C(=O)NO)c3)C[C@@H]2N1C(=O)NCc1ccccc1 [compound 265]
32 | 8.48 ± 0.9 µM | C=CCN1CC(=O)N2[C@@H](Cc3ccc(O)cc3)C(=O)N(Cc3cccc(-c4ccc(S(C)(=O)=O)cc4)n3)C[C@@H]2N1C(=O)NCc1ccccc1 [compound 261]
33 | 25.9 ± 3.38 µM | C=CCN1CC(=O)N2[C@@H](Cc3ccc(O)cc3)C(=O)N(Cc3cccnc3N3CCC(N4CCCC4)CC3)C[C@@H]2N1C(=O)NCc1ccccc1 [compound 199]
34 | 6.98 ± 1.45 µM | C=CCN1CC(=O)N2[C@@H](Cc3ccc(O)cc3)C(=O)N(Cc3csc4c(NC(C)=O)cccc34)C[C@@H]2N1C(=O)NCc1ccccc1 [compound 250]
35 | 12.5 ± 2.66 µM | C=CCN1CC(=O)N2[C@@H](Cc3ccc(O)cc3)C(=O)N(Cc3ccc(F)c4scnc34)C[C@@H]2N1C(=O)NCc1ccccc1F [compound 158]
36 | 0.61 ± 0.09 µM | C=CCN1CC(=O)N2[C@@H](Cc3ccc(O)cc3)C(=O)N(Cc3cccc(C(=O)NC4CCCCC4)c3)C[C@@H]2N1C(=O)NCc1ccccc1 [compound 38]
37 | 0.94 ± 0.04 µM | C=CCCNC(=O)c1cccc(CN2C[C@H]3N(C(=O)CN(CC=C)N3C(=O)NCc3ccccc3)[C@@H](Cc3ccc(O)cc3)C2=O)c1 [compound 76]
38 | 2.48 ± 0.22 µM | C=CCN1CC(=O)N2[C@@H](Cc3ccc(O)cc3)C(=O)N(Cc3cccc(C(=O)NOC)c3)C[C@@H]2N1C(=O)NCc1ccccc1 [compound 182]
39 | 0.73 ± 0.09 µM | C=CCN1CC(=O)N2[C@@H](Cc3ccc(O)cc3)C(=O)N(Cc3cccc(Br)c3)C[C@@H]2N1C(=O)NCc1ccccc1 [compound 52]
40 | 1 ± 0.22 µM | C=CCN1CC(=O)N2[C@@H](Cc3ccc(O)cc3)C(=O)N(Cc3csc4ccc(NC(C)=O)cc34)C[C@@H]2N1C(=O)NCc1ccccc1 [compound 85]
41 | 1.64 ± 0.27 µM | C=CCN1CC(=O)N2[C@@H](Cc3ccc(O)cc3)C(=O)N(Cc3ccc(OC)c(Br)c3)C[C@@H]2N1C(=O)NCc1ccccc1 [compound 129]
42 | 0.71 ± 0.43 µM | C=CCN1CC(=O)N2[C@@H](Cc3ccc(O)cc3)C(=O)N(Cc3cccc4[nH]cnc34)C[C@@H]2N1C(=O)NCc1ccccc1 [compound 49]
43 | 0.81 ± 0.15 µM | C=CCN1CC(=O)N2[C@@H](Cc3ccc(O)cc3)C(=O)N(Cc3cccc(-c4ccc(N5CCOCC5)nc4)c3)C[C@@H]2N1C(=O)NCc1ccccc1 [compound 62]
44 | 3.25 ± 0.41 µM | C=CCN1CC(=O)N2[C@@H](Cc3ccc(O)cc3)C(=O)N(Cc3cccc(C(N)=O)c3)C[C@@H]2N1C(=O)NCc1ccccc1 [compound 207]
45 | 0.9 ± 0.13 µM | C=CCN1CC(=O)N2[C@@H](Cc3ccc(O)cc3)C(=O)N(Cc3cccc(-c4ccsc4)c3)C[C@@H]2N1C(=O)NCc1ccccc1 [compound 72]
46 | 0.58 ± 0.132 µM | C=CCN1CC(=O)N2[C@@H](Cc3ccc(O)cc3)C(=O)N(Cc3cccc(-c4ccncc4)c3)C[C@@H]2N1C(=O)NCc1ccccc1 [compound 34]
47 | 0.56 ± 0.44 µM | C=CCN1CC(=O)N2[C@@H](Cc3ccc(O)cc3)C(=O)N(Cc3cccc(-c4ccc(F)nc4)c3)C[C@@H]2N1C(=O)NCc1ccccc1 [compound 33]

same assay, conditions: Homo sapiens, SW480; read-out: RGA, IC50 (μM) TopF

Row | Structure (SMILES) | IC50
48 | C=CCN1CC(=O)N2[C@@H](Cc3ccc(OP(=O)(O)O)cc3)C(=O)N(Cc3ccccc3N3CCCC3)C[C@@H]2N1C(=O)NCc1ccccc1 [compound 112] | 1.41 ± 0.21 µM
49 | C=CCN1CC(=O)N2[C@@H](Cc3ccc(O)cc3)C(=O)N(Cc3cccc(C(=O)N4CCCC4)c3)C[C@@H]2N1C(=O)NCc1ccccc1 [compound 189] | 2.68 ± 0.48 µM
50 | C=CCN1CC(=O)N2[C@@H](Cc3ccc(O)cc3)C(=O)N(Cc3ccc4cc[nH]c4c3)C[C@@H]2N1C(=O)NCc1ccccc1 [compound 223] | 4.01 ± 0.96 µM

same assay, conditions: TopFlash reporter gene assay, inhibition of Wnt signaling; read-out: RGA, IC50 (μM) TopF

Row | IC50 | Structure (SMILES)
51 | 1.86 ± 0.38 µM | C=CCN1CC(=O)N2[C@@H](Cc3ccc(O)cc3)C(=O)N(Cc3csc4cc(NCc5ccccc5)ccc34)C[C@@H]2N1C(=O)NCc1ccccc1 [compound 138]
52 | 6.19 ± 0.73 µM | C=CCN1CC(=O)N2[C@@H](Cc3ccc(O)cc3)C(=O)N(Cc3ccc(F)c4scnc34)C[C@@H]2N1C(=O)NCCc1ccccc1 [compound 245]
53 | 12.4 ± 2.36 µM | C=CCN1CC(=O)N2[C@@H](Cc3ccc(O)cc3)C(=O)N(Cc3csc4cc(NC(=O)NC)ccc34)C[C@@H]2N1C(=O)NCc1ccccc1 [compound 157]
54 | 1.73 ± 0.22 µM | C=CCN1CC(=O)N2[C@@H](Cc3ccc(O)cc3)C(=O)N(Cc3cccc(-c4nccs4)c3)C[C@@H]2N1C(=O)NCc1ccccc1 [compound 133]
55 | 2.38 ± 0.75 µM | C=CCN1CC(=O)N2[C@@H](Cc3ccc(O)cc3)C(=O)N(Cc3ccc(F)c4scnc34)C[C@@H]2N1C(=O)NCCc1ccccc1 [compound 178]
